Like-named read-outs stand apart in the source and are kept apart here. Marks after values point to notes of the source that are not given here.
Row | Compound | Log P (pH 7.5) | Log P (pH 2.7)
1 | CC(NC(=C(C#N)C(=O)OC(C)C(F)(F)F)c1cccnc1Cl)c1nccs1 (mixture of isomers) [Compound 56] | 2.94 | –
2 | CCOC(=O)C(C#N)=C(NC(C)C1CCCO1)c1sccc1C(F)(F)F (mixture of isomers) [Compound 172] | – | 3.55^[a]
3 | COC(=O)C(C#N)=C(NC(C)C1CCCO1)c1sc(C)nc1C(F)(F)F (mixture of isomers) [Compound 178] | – | 1.97^[a]
4 | CCOC(=O)C(C#N)=C(NC(C)C1CCCO1)c1sccc1Br (mixture of isomers) [Compound 186] | – | 3.35^[a]
5 | CCOC(=O)C(C#N)=C(NC(C)c1ccc(Cl)s1)c1cccnc1Cl (mixture of isomers) [Compound 281] | – | 3.8^[a]
6 | CCOC(=O)C(C#N)=C(NC(C)c1nc(C(C)C)no1)c1cccnc1Cl (mixture of isomers) [Compound 282] | – | 3.2^[a]
7 | CCOC(=O)C(C#N)=C(NC(C)CN1CCCC1)c1cccnc1Cl (mixture of isomers) [Compound 283] | – | 3.35^[a]
8 | CCOC(=O)C(C#N)=C(NC(C)c1ccc(C(F)(F)F)cn1)c1cccnc1Cl (mixture of isomers) [Compound 285] | – | 3.5^[a]
9 | CCOC(=O)C(C#N)=C(NC(C)c1ncc(Br)cc1Cl)c1cccnc1Cl (mixture of isomers) [Compound 287] | – | 3.9^[a]
10 | CCOC(=O)C(C#N)=C(NC(C)c1ncc(C(F)(F)F)cc1Cl)c1cccnc1Cl (mixture of isomers) [Compound 288] | – | 3.9^[a]
11 | CCOC(=O)C(C#N)=C(NC(C)c1ccccn1)c1ccnc(Cl)c1Cl (mixture of isomers) [Compound 289] | – | 3.04^[a]
12 | CCOC(=O)C(C#N)=C(NC(C)c1cscn1)c1ccnc(Cl)c1Cl (mixture of isomers) [Compound 290] | – | 2.92^[a]
13 | CCOC(=O)C(C#N)=C(NC(C)c1nccs1)c1ccnc(Cl)c1Cl (mixture of isomers) [Compound 291] | – | 2.96^[a]
14 | CCOC(=O)C(C#N)=C(NC(C)c1ccccn1)c1cccnc1Cl (mixture of isomers) [Compound 292] | – | 2.5^[a]
15 | CCOC(=O)C(C#N)=C(NC(C)Cc1nccs1)c1cccnc1Cl (mixture of isomers) [Compound 294] | – | 2.4^[a]
16 | CCOC(=O)C(C#N)=C(NC(C)Cc1ccccn1)c1cccnc1Cl (mixture of isomers) [Compound 295] | – | 1.82^[a]
17 | CCOC(=O)C(C#N)=C(NC(C)Cc1cccnc1)c1cccnc1Cl (mixture of isomers) [Compound 296] | – | 1.57^[a]
18 | CCOC(=O)C(C#N)=C(NC(C)c1nccs1)c1ccncc1Br (mixture of isomers) [Compound 297] | – | 2.4^[a]
19 | CCOC(=O)C(C#N)=C(NC(C)c1cscn1)c1ccncc1Br (mixture of isomers) [Compound 298] | – | 2.4^[a]
20 | CCOC(=O)C(C#N)=C(NC(C)c1ccccn1)c1ccncc1Br (mixture of isomers) [Compound 299] | – | 2.5^[a]
21 | CCOC(=O)C(C#N)=C(NC(C)c1ccccn1)c1ccncc1F (mixture of isomers) [Compound 300] | – | 2.28^[a]
22 | CCOC(=O)C(C#N)=C(NC(C)c1cscn1)c1ccncc1F (mixture of isomers) [Compound 301] | – | 2.22^[a]
23 | CCOC(=O)C(C#N)=C(NC(C)Cc1nccs1)c1ccncc1F (mixture of isomers) [Compound 302] | – | 2.19^[a]
24 | CCOC(=O)C(C#N)=C(NC(C)c1cscn1)c1ccncc1C(F)(F)F (mixture of isomers) [Compound 303] | – | 2.6^[a]

Row | Compound | Log P (pH 7.5) | Log P (pH 2.7)
25 | CCOC(=O)C(C#N)=C(NC(C)c1nc(C(=O)N(C)C)cs1)c1cccnc1Cl (mixture of isomers) [Compound 304] | 2.08 | –
26 | C=CCOC(=O)C(C#N)=C(NC(C)c1nccs1)c1cn(C)nc1C(F)F (mixture of isomers) [Compound 305] | – | 2.59^[a]
27 | C=CCOC(=O)C(C#N)=C(NC(C)c1ccccn1)c1cn(C)nc1C(F)F (mixture of isomers) [Compound 307] | – | 2.56^[a]
28 | CCOC(=O)C(C#N)=C(NC(C)c1nccs1)c1c(C(F)(F)F)nn(C)c1F (mixture of isomers) [Compound 308] | – | 3.09^[a]
29 | CCOC(=O)C(C#N)=C(NC(C)c1nccs1)c1c(C(F)F)nn(C)c1F (mixture of isomers) [Compound 309] | – | 2.73^[a]
30 | CCOC(=O)C(C#N)=C(NC(C)c1ccccn1)c1c(C(F)(F)F)nn(C)c1F (mixture of isomers) [Compound 310] | – | 3.12^[a]
31 | CCOC(=O)C(C#N)=C(NC(C)CCc1c(Cl)cccc1Cl)c1cccnc1Cl (mixture of isomers) [Compound 429] | 4.62 | –
32 | CCOC(=O)C(C#N)=C(NC(C)c1ccc(F)cc1)c1sccc1C(F)(F)F (mixture of isomers) [Compound 438] | – | 4.14^[a]
33 | CCOC(=O)C(C#N)=C(NC(C)c1ccc(C)cc1)c1sccc1C(F)(F)F (mixture of isomers) [Compound 439] | – | 4.54^[a]
34 | CCOC(=O)C(C#N)=C(NC(C)c1ccccc1)c1sccc1C(F)(F)F (mixture of isomers) [Compound 440] | – | 4.16^[a]
35 | COC(=O)C(C#N)=C(NC(C)CCc1ccccc1)c1sc(C)nc1C(F)(F)F (mixture of isomers) [Compound 441] | – | 4.01^[a]
36 | COC(=O)C(C#N)=C(NC(C)c1ccc(F)cc1)c1sc(C)nc1C(F)(F)F (mixture of isomers) [Compound 442] | – | 3.64^[a]
37 | COC(=O)C(C#N)=C(NC(C)c1ccc(C)cc1)c1sc(C)nc1C(F)(F)F (mixture of isomers) [Compound 443] | – | 4.01^[a]
38 | COC(=O)C(C#N)=C(NC(C)c1ccccc1)c1sc(C)nc1C(F)(F)F (mixture of isomers) [Compound 444] | – | 3.62^[a]
39 | CCOC(=O)C(C#N)=C(NC(C)CCc1ccccc1)c1sccc1Br (mixture of isomers) [Compound 445] | – | 4.51^[a]
40 | CCOC(=O)C(C#N)=C(NC(C)c1ccc(F)cc1)c1sccc1Br (mixture of isomers) [Compound 446] | – | 4.06^[a]
41 | CCOC(=O)C(C#N)=C(NC(C)c1ccc(C)cc1)c1sccc1Br (mixture of isomers) [Compound 447] | – | 4.49^[a]
42 | CCOC(=O)C(C#N)=C(NC(C)c1ccccc1)c1sccc1Br (mixture of isomers) [Compound 448] | – | 4.09^[a]
43 | CCOC(=O)C(C#N)=C(NC(C)CCc1ccccc1)c1sc(C)nc1C(F)(F)F (mixture of isomers) [Compound 449] | – | 4.36^[a]
44 | CCOC(=O)C(C#N)=C(NC(C)c1ccc(F)cc1)c1sc(C)nc1C(F)(F)F (mixture of isomers) [Compound 450] | – | 3.96^[a]
45 | CCOC(=O)C(C#N)=C(NC(C)c1ccc(C)cc1)c1sc(C)nc1C(F)(F)F (mixture of isomers) [Compound 451] | – | 4.36^[a]
46 | CCOC(=O)C(C#N)=C(NC(C)c1ccccc1)c1sc(C)nc1C(F)(F)F (mixture of isomers) [Compound 452] | – | 3.99^[a]
47 | CCOC(=O)C(C#N)=C(NC(C)CCc1ccccc1)c1cn(C)nc1C(F)F (mixture of isomers) [Compound 453] | – | 3.62^[a]
48 | CCOC(=O)C(C#N)=C(NC(C)c1ccc(F)cc1)c1cn(C)nc1C(F)F (mixture of isomers) [Compound 454] | – | 3.21^[a]

Reference: patent US8476197B2, “Aminopropenoates as fungicides” (priority 2009, dated 2013)
